According to patent publication US12503452B2 (Curza Global, LLC, priority 2019, dated 2025):

What was measured:
[1] = system: E. coli S30 extract (bacterial protein synthesis); test: E. coli S30 extract coupled transcription-translation luciferase assay (inhibition of bacterial protein synthesis); format: biochemical; settings: class by IC50 or % inhibition @ 1 μM, read-out: S30 IC50 (μM/% inhib.)
How it was run: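 Cell-free coupled transcription-translation in E. coli S30 circular-DNA extract, with pBESTluc plasmid as template and complete amino acid mix. Eight 2-fold compound dilutions were incubated with the extract 1 h at 37 °C, chilled, then luciferase luminescence was read. % inhibition was taken relative to no-inhibitor wells; no-DNA wells gave background.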

[2] = target: Rabbit Reticulocyte Lysate (eukaryotic protein synthesis); test: Rabbit reticulocyte lysate luciferase assay (inhibition of eukaryotic protein synthesis); format: biochemical; settings: class by IC50 or % inhibition @ 1 μM, read-out: Rabbit reticulocyte IC50 (μM/% inhib.)
How it was run: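 Nuclease-treated rabbit reticulocyte lysate translating luciferase control RNA, with complete amino acids, was incubated at 30° C. for 90 minutes with 2-fold serial compound dilutions. Luminescence was measured after adding luciferase reagent. % inhibition was relative to water controls, with no-RNA wells as background.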

A. baumannii (Ab) = test: Broth microdilution minimum inhibitory concentration (MIC); format: cell-based; settings: Acinetobacter baumannii; A. baumannii; growth medium with sodium bicarbonate; read-out: Ab + bicarb MIC
How it was run: (§1)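 CLSI broth microdilution (M07-A9, slightly modified) in CAMHB, optionally with 6.25 or 25 mM sodium bicarbonate or 0–50% heat-inactivated human serum. Two-fold serial dilutions (8 concentrations, triplicate) were inoculated at 5×10^4 CFU/well from 0.5 McFarland cultures grown at 35±2 °C.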

E. faecalis (Ef) = test: as above; format: cell-based; settings: Enterococcus faecalis, E. faecalis; growth medium with sodium bicarbonate; read-out: Ef + bicarb MIC
How it was run: as §1

P. aeruginosa (Pa) = test: as above; format: cell-based; settings: Pseudomonas aeruginosa, P. aeruginosa; growth medium with sodium bicarbonate; read-out: Pa MIC + bicarb
How it was run: as §1

S. aureus (Sa) = test: as above; format: cell-based; settings: Staphylococcus aureus, S. aureus; growth medium with sodium bicarbonate; read-out: Sa + bicarb MIC
How it was run: as §1

E. coli (Ec) = test: as above; format: cell-based; settings: Escherichia coli, E. coli; growth medium with sodium bicarbonate; read-out: E. coli + bicarb MIC
How it was run: as §1

SMILES: CC(CN1CC[C@@H](CN)C1)Oc1ccc(-n2ccc(NC(=O)N3CCN(C(=O)C(C)(C)N)CC3)nc2=O)cc1 (some centres unmarked) [Compound 185]
- IC50 [1]: < 0.5 µM
- IC50 [2]: > 1 µM
- MIC (A. baumannii (Ab)): > 32 µg/mL
- MIC (E. faecalis (Ef)): 8 to 32 µg/mL
- MIC (P. aeruginosa (Pa)): > 32 µg/mL
- MIC (S. aureus (Sa)): < 8 µg/mL
- MIC (E. coli (Ec)): < 8 µg/mL

SMILES: CC(COc1ccc(-n2ccc(NC(=O)N3CCN(C(=O)C(C)(C)N)CC3)nc2=O)cc1)N1CC[C@@H](CN)C1 (some centres unmarked) [Compound 186]
- IC50 [1]: < 0.5 µM
- IC50 [2]: > 1 µM
- MIC (A. baumannii (Ab)): > 32 µg/mL
- MIC (E. faecalis (Ef)): 8 to 32 µg/mL
- MIC (P. aeruginosa (Pa)): > 32 µg/mL
- MIC (S. aureus (Sa)): < 8 µg/mL
- MIC (E. coli (Ec)): < 8 µg/mL

SMILES: CC(C)(N)C(=O)N1CCN(C(=O)Nc2ccn(-c3ccc(OCCN4CCCC(N)CC4)cc3)c(=O)n2)CC1 (centres unmarked) [Compound 187]
- IC50 [1]: < 0.5 µM
- IC50 [2]: > 1 µM
- MIC (A. baumannii (Ab)): 8 to 32 µg/mL
- MIC (E. faecalis (Ef)): < 8 µg/mL
- MIC (P. aeruginosa (Pa)): > 32 µg/mL
- MIC (S. aureus (Sa)): < 8 µg/mL
- MIC (E. coli (Ec)): < 8 µg/mL

SMILES: CC(C)(N)C(=O)N1CCN(C(=O)Nc2ccn(-c3ccc(OCCN4CCCC(CN)C4)cc3)c(=O)n2)CC1 (centres unmarked) [Compound 188]
- IC50 [1]: < 0.5 µM
- IC50 [2]: > 1 µM
- MIC (A. baumannii (Ab)): > 32 µg/mL
- MIC (E. faecalis (Ef)): < 8 µg/mL
- MIC (P. aeruginosa (Pa)): > 32 µg/mL
- MIC (S. aureus (Sa)): < 8 µg/mL
- MIC (E. coli (Ec)): < 8 µg/mL

SMILES: CC(COc1ccc(-n2ccc(NC(=O)N3CCN(C(=O)C(C)(C)N)CC3)nc2=O)cc1)N1CC[C@H](CN)C1 (some centres unmarked) [Compound 190]
- IC50 [1]: < 0.5 µM
- IC50 [2]: > 1 µM
- MIC (A. baumannii (Ab)): > 32 µg/mL
- MIC (E. faecalis (Ef)): < 8 µg/mL
- MIC (P. aeruginosa (Pa)): > 32 µg/mL
- MIC (S. aureus (Sa)): < 8 µg/mL
- MIC (E. coli (Ec)): < 8 µg/mL

SMILES: CC(COc1ccc(-n2ccc(NC(=O)N3CCN(C(=O)C(C)(C)N)CC3)nc2=O)cc1)N1CCCC(N)CC1 (centres unmarked) [Compound 191]
- IC50 [1]: 0.5 to 1 µM
- IC50 [2]: > 1 µM
- MIC (A. baumannii (Ab)): > 32 µg/mL
- MIC (E. faecalis (Ef)): 8 to 32 µg/mL
- MIC (P. aeruginosa (Pa)): > 32 µg/mL
- MIC (S. aureus (Sa)): < 8 µg/mL
- MIC (E. coli (Ec)): < 8 µg/mL

SMILES: NC1CCCN(CCc2ccc(-n3ccc(NC(=O)N4CCC5(CC4)CNC5)nc3=O)cc2)CC1 (centres unmarked) [Compound 192]
- IC50 [1]: > 1 µM
- IC50 [2]: > 1 µM
- MIC (A. baumannii (Ab)): > 32 µg/mL
- MIC (E. faecalis (Ef)): 8 to 32 µg/mL
- MIC (P. aeruginosa (Pa)): > 32 µg/mL
- MIC (S. aureus (Sa)): < 8 µg/mL
- MIC (E. coli (Ec)): < 8 µg/mL

SMILES: NC1CCCN(CCc2ccc(-n3ccc(NC(=O)N4CC5(CC(N)C5)C4)nc3=O)cc2)CC1 (centres unmarked) [Compound 193]
- IC50 [1]: < 0.5 µM
- IC50 [2]: > 1 µM
- MIC (A. baumannii (Ab)): > 32 µg/mL
- MIC (E. faecalis (Ef)): 8 to 32 µg/mL
- MIC (P. aeruginosa (Pa)): > 32 µg/mL
- MIC (S. aureus (Sa)): < 8 µg/mL
- MIC (E. coli (Ec)): < 8 µg/mL

SMILES: NCC1CN(C(=O)Nc2ccn(-c3ccc(CCN4CCCC(N)CC4)cc3)c(=O)n2)C1 (centres unmarked) [Compound 194]
- IC50 [1]: 0.5 to 1 µM
- IC50 [2]: > 1 µM
- MIC (A. baumannii (Ab)): > 32 µg/mL
- MIC (E. faecalis (Ef)): > 32 µg/mL
- MIC (P. aeruginosa (Pa)): > 32 µg/mL
- MIC (S. aureus (Sa)): > 32 µg/mL
- MIC (E. coli (Ec)): < 8 µg/mL

SMILES: NC1CCCN(CCc2ccc(-n3ccc(NC(=O)N4CC5(CCC5N)C4)nc3=O)cc2)CC1 (centres unmarked) [Compound 195]
- IC50 [1]: 0.5 to 1 µM
- IC50 [2]: > 1 µM
- MIC (A. baumannii (Ab)): > 32 µg/mL
- MIC (E. faecalis (Ef)): > 32 µg/mL
- MIC (P. aeruginosa (Pa)): > 32 µg/mL
- MIC (S. aureus (Sa)): 8 to 32 µg/mL
- MIC (E. coli (Ec)): > 32 µg/mL

SMILES: CC(C)(N)C(=O)N1CCN(C(=O)Nc2ccn(-c3ccc(CCN4CCC(N)CC4)cc3)c(=O)n2)CC1 [Compound 198]
- IC50 [1]: < 0.5 µM
- IC50 [2]: > 1 µM
- MIC (A. baumannii (Ab)): > 32 µg/mL
- MIC (E. faecalis (Ef)): 8 to 32 µg/mL
- MIC (P. aeruginosa (Pa)): > 32 µg/mL
- MIC (S. aureus (Sa)): 8 to 32 µg/mL
- MIC (E. coli (Ec)): < 8 µg/mL

SMILES: C[C@@](N)(CO)C(=O)N1CCN(C(=O)Nc2ccn(-c3ccc(CCN4CCC(N)CC4)cc3)c(=O)n2)CC1 [Compound 199]
- IC50 [1]: < 0.5 µM
- IC50 [2]: > 1 µM
- MIC (A. baumannii (Ab)): > 32 µg/mL
- MIC (E. faecalis (Ef)): > 32 µg/mL
- MIC (P. aeruginosa (Pa)): > 32 µg/mL
- MIC (S. aureus (Sa)): 8 to 32 µg/mL
- MIC (E. coli (Ec)): < 8 µg/mL

SMILES: CCOC(=O)C1(CN)CN(Cc2ccc(-n3ccc(NC(=O)N4CCN(C(=O)C(C)(C)N)CC4)nc3=O)cc2)C1 [Compound 201]
- IC50 [1]: > 1 µM
- IC50 [2]: > 1 µM
- MIC (A. baumannii (Ab)): > 32 µg/mL
- MIC (E. faecalis (Ef)): > 32 µg/mL
- MIC (P. aeruginosa (Pa)): > 32 µg/mL
- MIC (S. aureus (Sa)): > 32 µg/mL
- MIC (E. coli (Ec)): > 32 µg/mL

SMILES: CC(C)(N)C(=O)N1CCN(C(=O)Nc2ccn(-c3ccc(CN4CC(O)(CCN)C4)cc3)c(=O)n2)CC1 [Compound 205]
- IC50 [1]: < 0.5 µM
- IC50 [2]: > 1 µM
- MIC (A. baumannii (Ab)): > 32 µg/mL
- MIC (E. faecalis (Ef)): > 32 µg/mL
- MIC (P. aeruginosa (Pa)): > 32 µg/mL
- MIC (S. aureus (Sa)): 8 to 32 µg/mL
- MIC (E. coli (Ec)): < 8 µg/mL
